Experimental data published in ChEMBL document CHEMBL4507279, “Data for DCP probe BI-9627” (2021).

What was measured:
[1] = target: Alpha-1D adrenergic receptor (Homo sapiens, UniProt P25100); test: GPCRScan assay: inhibition of Alpha1D; set-up: radioligand conc. used [nm] 0.3 – 1.0, parental cells stable
[2] = test system: Tyrosine-protein kinase ABL1 (Homo sapiens), P00519 [T315I]; conditions: Compound concentration 1000.0 nM
[3] = target: Activin receptor type-1 (Homo sapiens) (UniProt Q04771); conditions: Compound concentration 1000.0 nM
[4] = target: Aurora kinase C (Homo sapiens) (UniProt Q9UQB9); conditions: Compound concentration 1000.0 nM
[5] = target: BMP-2-inducible protein kinase (Homo sapiens) (UniProt Q9NSY1); conditions: Compound concentration 1000.0 nM
[6] = target: Calcium/calmodulin-dependent protein kinase kinase 2 (Homo sapiens) (UniProt Q96RR4); conditions: Compound concentration 1000.0 nM
[7] = target: Cyclin-dependent kinase 11A (Homo sapiens) (UniProt Q9UQ88); conditions: Compound concentration 1000.0 nM
[8] = target: Cyclin-dependent kinase 3 (Homo sapiens) (UniProt Q00526); conditions: Compound concentration 1000.0 nM
[9] = target: Cyclin-dependent kinase 4 (Homo sapiens) (UniProt P11802); conditions: Compound concentration 1000.0 nM
[10] = target: Casein kinase I isoform delta (Homo sapiens) (UniProt P48730); conditions: Compound concentration 1000.0 nM
[11] = target: Serine/threonine-protein kinase 17A (Homo sapiens) (UniProt Q9UEE5); conditions: Compound concentration 1000.0 nM
[12] = target: Ephrin type-A receptor 7 (Homo sapiens) (UniProt Q15375); conditions: Compound concentration 1000.0 nM
[13] = target: Mitogen-activated protein kinase 6 (Homo sapiens) (UniProt Q16659); conditions: Compound concentration 1000.0 nM
[14] = target: Serine/threonine-protein kinase/endoribonuclease IRE1 (Homo sapiens) (UniProt O75460); conditions: Compound concentration 1000.0 nM
[15] = target: Rhodopsin kinase GRK1 (Homo sapiens) (UniProt Q15835); conditions: Compound concentration 1000.0 nM
[16] = target: Beta-adrenergic receptor kinase 1 (Homo sapiens) (UniProt P25098); conditions: Compound concentration 1000.0 nM
[17] = target: Homeodomain-interacting protein kinase 4 (Homo sapiens) (UniProt Q8NE63); conditions: Compound concentration 1000.0 nM
[18] = target: Serine/threonine-protein kinase ICK (Homo sapiens) (UniProt Q9UPZ9); conditions: Compound concentration 1000.0 nM
[19] = target: Serine/threonine-protein kinase 10 (Homo sapiens) (UniProt O94804); conditions: Compound concentration 1000.0 nM
[20] = test system: Leucine-rich repeat serine/threonine-protein kinase 2 (Homo sapiens), Q5S007 [G2019S]; conditions: Compound concentration 1000.0 nM
[21] = target: Misshapen-like kinase 1 (Homo sapiens) (UniProt Q8N4C8); conditions: Compound concentration 1000.0 nM
[22] = target: Serine/threonine-protein kinase Nek4 (Homo sapiens) (UniProt P51957); conditions: Compound concentration 1000.0 nM
[23] = target: Serine/threonine-protein kinase PAK 4 (Homo sapiens) (UniProt O96013); conditions: Compound concentration 1000.0 nM
[24] = target: Serine/threonine-protein kinase PAK 6 (Homo sapiens) (UniProt Q9NQU5); conditions: Compound concentration 1000.0 nM
[25] = target: Phosphatidylinositol 5-phosphate 4-kinase type-2 beta (Homo sapiens) (UniProt P78356); conditions: Compound concentration 1000.0 nM
[26] = target: Serine/threonine-protein kinase PLK3 (Homo sapiens) (UniProt Q9H4B4); conditions: Compound concentration 1000.0 nM
[27] = target: Protein kinase C theta type (Homo sapiens) (UniProt Q04759); conditions: Compound concentration 1000.0 nM
[28] = target: Serine/threonine-protein kinase SIK3 (Homo sapiens) (UniProt Q9Y2K2); conditions: Compound concentration 1000.0 nM
[29] = target: Proto-oncogene tyrosine-protein kinase ROS (Homo sapiens) (UniProt P08922); conditions: Compound concentration 1000.0 nM
[30] = target: Ribosomal protein S6 kinase alpha-4 (Homo sapiens) (UniProt O75676); conditions: Compound concentration 1000.0 nM
[31] = target: Ribosomal protein S6 kinase alpha-5 (Homo sapiens) (UniProt O75582); conditions: Compound concentration 1000.0 nM
[32] = target: Ribosomal protein S6 kinase alpha-6 (Homo sapiens) (UniProt Q9UK32); conditions: Compound concentration 1000.0 nM
[33] = target: SRSF protein kinase 1 (Homo sapiens) (UniProt Q96SB4); conditions: Compound concentration 1000.0 nM
[34] = target: Serine/threonine-protein kinase 33 (Homo sapiens) (UniProt Q9BYT3); conditions: Compound concentration 1000.0 nM
[35] = target: Mitogen-activated protein kinase kinase kinase 7 (Homo sapiens) (UniProt O43318); conditions: Compound concentration 1000.0 nM
[36] = target: Serine/threonine-protein kinase TAO1 (Homo sapiens) (UniProt Q7L7X3); conditions: Compound concentration 1000.0 nM
[37] = target: Serine/threonine-protein kinase WNK2 (Homo sapiens) (UniProt Q9Y3S1); conditions: Compound concentration 1000.0 nM
[38] = target: Serine/threonine-protein kinase 25 (Homo sapiens) (UniProt O00506); conditions: Compound concentration 1000.0 nM
[39] = target: T1, D(4) dopamine receptor (Homo sapiens) (UniProt P21917); conditions: Compound concentration 10.0 uM
T1 sequence (whole entry): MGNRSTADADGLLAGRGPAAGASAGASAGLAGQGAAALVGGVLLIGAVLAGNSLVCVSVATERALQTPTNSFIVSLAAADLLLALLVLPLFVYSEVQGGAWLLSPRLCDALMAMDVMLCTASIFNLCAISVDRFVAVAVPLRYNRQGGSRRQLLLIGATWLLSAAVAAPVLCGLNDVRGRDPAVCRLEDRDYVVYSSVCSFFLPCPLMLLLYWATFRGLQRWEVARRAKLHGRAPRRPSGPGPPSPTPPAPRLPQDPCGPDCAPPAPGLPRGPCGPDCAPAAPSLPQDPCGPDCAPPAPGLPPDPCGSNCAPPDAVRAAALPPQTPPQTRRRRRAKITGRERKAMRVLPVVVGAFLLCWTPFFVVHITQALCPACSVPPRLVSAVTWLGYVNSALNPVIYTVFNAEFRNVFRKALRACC

[40] = target: Delta-type opioid receptor (Homo sapiens) (UniProt P41143); conditions: Compound concentration 10.0 uM
Sequence of Delta-type opioid receptor (Homo sapiens) (P41143 whole entry): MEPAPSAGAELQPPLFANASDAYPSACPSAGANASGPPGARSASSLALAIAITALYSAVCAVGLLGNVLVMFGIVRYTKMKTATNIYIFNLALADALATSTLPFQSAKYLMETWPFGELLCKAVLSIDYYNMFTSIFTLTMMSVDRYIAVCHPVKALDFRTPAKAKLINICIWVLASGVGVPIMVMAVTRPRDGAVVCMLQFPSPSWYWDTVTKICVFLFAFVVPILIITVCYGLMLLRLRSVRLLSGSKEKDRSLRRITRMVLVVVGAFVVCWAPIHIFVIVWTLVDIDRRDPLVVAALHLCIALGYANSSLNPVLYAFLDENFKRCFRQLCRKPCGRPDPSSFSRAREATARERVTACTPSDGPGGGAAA

Sequence of BMP-2-inducible protein kinase (Homo sapiens) (Q9NSY1 whole entry, looked up): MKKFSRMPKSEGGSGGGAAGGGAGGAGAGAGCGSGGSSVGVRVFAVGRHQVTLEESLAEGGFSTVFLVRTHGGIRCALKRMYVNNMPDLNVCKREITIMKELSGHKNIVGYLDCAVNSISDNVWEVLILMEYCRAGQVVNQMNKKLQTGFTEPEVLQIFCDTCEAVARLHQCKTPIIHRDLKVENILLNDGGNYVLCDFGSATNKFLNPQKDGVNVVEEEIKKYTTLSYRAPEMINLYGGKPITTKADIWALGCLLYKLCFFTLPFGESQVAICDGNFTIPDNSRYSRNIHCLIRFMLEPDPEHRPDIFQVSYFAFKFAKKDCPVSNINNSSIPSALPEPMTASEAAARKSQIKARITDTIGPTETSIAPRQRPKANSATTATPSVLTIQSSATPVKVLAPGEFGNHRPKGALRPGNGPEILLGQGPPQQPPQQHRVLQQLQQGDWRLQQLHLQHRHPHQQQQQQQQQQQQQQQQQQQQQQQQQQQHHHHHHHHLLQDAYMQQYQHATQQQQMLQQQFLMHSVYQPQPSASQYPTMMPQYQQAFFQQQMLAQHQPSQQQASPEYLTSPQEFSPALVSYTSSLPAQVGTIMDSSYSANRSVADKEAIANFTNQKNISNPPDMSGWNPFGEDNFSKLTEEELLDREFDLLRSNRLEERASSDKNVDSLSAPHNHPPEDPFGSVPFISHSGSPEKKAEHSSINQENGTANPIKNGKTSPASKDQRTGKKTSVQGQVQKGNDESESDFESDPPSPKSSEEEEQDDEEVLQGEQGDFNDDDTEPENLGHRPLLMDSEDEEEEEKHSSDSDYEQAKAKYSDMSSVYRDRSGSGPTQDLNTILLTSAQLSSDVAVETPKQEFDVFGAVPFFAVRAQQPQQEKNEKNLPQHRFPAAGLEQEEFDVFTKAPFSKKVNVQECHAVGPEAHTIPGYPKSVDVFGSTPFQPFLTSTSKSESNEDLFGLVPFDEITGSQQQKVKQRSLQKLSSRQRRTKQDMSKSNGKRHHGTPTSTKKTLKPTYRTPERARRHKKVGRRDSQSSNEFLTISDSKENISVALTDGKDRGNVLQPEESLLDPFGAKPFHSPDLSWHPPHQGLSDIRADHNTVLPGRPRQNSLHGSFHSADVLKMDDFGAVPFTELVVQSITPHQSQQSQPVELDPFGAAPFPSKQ
Sequence of Phosphatidylinositol 5-phosphate 4-kinase type-2 beta (Homo sapiens) (P78356 whole entry): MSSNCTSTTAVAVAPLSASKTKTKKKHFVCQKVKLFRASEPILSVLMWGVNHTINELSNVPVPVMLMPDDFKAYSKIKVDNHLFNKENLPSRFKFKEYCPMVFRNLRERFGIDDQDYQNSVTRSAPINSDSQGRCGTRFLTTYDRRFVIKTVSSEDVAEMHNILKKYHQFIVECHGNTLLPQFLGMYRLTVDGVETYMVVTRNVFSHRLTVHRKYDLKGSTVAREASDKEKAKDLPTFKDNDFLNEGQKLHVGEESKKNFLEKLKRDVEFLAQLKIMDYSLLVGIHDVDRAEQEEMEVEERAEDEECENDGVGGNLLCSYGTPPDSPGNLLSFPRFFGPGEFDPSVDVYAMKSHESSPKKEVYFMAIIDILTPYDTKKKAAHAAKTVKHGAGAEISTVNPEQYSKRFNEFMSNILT
Sequence of Ribosomal protein S6 kinase alpha-6 (Homo sapiens) (Q9UK32 whole entry): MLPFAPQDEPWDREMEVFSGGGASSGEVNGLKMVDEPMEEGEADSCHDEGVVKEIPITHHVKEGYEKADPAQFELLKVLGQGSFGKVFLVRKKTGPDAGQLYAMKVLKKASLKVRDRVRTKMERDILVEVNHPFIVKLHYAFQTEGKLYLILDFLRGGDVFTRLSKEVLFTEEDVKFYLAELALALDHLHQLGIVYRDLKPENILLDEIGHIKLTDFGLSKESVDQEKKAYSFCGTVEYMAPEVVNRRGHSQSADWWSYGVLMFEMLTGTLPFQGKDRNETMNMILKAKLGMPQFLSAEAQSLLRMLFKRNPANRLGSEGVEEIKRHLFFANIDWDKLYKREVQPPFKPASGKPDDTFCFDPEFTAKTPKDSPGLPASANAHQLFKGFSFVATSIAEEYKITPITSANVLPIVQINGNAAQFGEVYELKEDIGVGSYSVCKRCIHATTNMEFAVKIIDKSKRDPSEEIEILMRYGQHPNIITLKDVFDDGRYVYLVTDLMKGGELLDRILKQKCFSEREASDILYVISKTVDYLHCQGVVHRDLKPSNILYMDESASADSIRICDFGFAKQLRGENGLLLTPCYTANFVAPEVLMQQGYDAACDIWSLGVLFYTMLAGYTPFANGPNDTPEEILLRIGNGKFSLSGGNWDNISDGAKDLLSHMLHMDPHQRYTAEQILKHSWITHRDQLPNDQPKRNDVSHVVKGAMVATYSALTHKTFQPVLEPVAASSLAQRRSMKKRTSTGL
Sequence of Casein kinase I isoform delta (Homo sapiens) (P48730 whole entry, looked up, canonical isoform): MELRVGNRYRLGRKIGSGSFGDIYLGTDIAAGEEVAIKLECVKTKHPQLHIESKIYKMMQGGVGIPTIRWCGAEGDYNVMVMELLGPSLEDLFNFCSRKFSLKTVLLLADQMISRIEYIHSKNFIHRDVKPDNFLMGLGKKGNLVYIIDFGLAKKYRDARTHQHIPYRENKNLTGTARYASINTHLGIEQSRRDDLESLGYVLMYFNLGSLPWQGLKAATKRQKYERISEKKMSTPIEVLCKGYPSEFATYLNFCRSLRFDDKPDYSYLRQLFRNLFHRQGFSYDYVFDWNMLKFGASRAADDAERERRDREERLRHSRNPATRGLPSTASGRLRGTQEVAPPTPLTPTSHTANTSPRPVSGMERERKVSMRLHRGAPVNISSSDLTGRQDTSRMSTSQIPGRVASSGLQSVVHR
Sequence of Calcium/calmodulin-dependent protein kinase kinase 2 (Homo sapiens) (Q96RR4 2-588 limits assumed): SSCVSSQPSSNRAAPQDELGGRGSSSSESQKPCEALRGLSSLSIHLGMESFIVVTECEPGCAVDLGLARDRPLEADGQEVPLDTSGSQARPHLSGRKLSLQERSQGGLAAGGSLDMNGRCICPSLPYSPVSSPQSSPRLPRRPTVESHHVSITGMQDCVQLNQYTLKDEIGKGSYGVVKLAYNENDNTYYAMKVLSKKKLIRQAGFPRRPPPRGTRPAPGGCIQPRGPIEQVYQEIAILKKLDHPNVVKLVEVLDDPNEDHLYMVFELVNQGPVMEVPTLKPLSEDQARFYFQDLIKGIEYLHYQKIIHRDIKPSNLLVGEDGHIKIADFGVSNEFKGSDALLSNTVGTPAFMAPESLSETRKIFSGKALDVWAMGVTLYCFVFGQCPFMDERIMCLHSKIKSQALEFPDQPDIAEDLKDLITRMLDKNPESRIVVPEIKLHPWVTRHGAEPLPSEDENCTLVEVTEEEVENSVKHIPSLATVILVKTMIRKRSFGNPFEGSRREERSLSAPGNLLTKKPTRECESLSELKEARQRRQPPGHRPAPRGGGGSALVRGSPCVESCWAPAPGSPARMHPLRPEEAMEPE
Sequence of Homeodomain-interacting protein kinase 4 (Homo sapiens) (Q8NE63 whole entry): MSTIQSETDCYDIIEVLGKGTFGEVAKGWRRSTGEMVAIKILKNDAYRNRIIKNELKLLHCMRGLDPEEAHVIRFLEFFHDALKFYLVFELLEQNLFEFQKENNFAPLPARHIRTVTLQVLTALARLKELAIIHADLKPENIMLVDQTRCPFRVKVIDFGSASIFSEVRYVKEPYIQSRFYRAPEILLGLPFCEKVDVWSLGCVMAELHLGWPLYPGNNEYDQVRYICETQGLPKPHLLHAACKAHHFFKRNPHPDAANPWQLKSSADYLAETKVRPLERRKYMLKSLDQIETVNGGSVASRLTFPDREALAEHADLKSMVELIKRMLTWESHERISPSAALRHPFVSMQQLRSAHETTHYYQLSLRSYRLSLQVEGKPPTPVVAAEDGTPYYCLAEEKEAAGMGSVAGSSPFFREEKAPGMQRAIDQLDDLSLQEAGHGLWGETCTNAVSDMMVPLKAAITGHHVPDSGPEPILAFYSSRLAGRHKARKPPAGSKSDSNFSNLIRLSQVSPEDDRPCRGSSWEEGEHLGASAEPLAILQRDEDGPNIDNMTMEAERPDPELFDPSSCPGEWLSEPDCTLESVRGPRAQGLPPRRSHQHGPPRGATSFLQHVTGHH
Sequence of Cyclin-dependent kinase 4 (Homo sapiens) (P11802 whole entry, canonical isoform): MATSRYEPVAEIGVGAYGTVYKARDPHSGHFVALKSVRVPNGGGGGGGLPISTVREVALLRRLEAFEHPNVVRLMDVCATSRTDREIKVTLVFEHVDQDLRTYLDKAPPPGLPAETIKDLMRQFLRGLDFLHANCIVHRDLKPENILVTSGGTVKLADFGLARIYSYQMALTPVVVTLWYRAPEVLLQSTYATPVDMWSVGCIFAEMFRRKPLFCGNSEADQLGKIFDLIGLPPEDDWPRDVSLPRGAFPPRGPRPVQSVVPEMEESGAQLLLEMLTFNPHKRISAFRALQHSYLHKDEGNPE
Sequence of Aurora kinase C (Homo sapiens) (Q9UQB9 whole entry): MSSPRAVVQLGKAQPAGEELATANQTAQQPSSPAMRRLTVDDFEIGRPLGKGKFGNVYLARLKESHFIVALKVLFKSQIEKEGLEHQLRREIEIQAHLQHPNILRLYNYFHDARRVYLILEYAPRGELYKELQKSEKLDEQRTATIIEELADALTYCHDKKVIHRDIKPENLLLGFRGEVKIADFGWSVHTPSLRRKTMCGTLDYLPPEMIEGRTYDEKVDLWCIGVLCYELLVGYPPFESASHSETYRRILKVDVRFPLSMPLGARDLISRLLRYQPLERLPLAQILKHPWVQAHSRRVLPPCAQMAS

SMILES | Ki [1] [µM] | residual activity [2] [%] | residual activity [3] [%] | residual activity [4] [%] | residual activity [5] [%] | residual activity [6] [%] | residual activity [7] [%] | residual activity [8] [%] | residual activity [9] [%] | residual activity [10] [%] | residual activity [11] [%] | residual activity [12] [%] | residual activity [13] [%] | residual activity [14] [%] | residual activity [15] [%] | residual activity [16] [%] | residual activity [17] [%] | residual activity [18] [%] | residual activity [19] [%] | residual activity [20] [%] | further results
CC(=O)N1CCC(c2ccc(C(=O)NC(=N)N)cc2C(F)(F)F)CC1 [BI 9627] | 10 | 95 | 100 | 100 | 96 | 100 | 92 | 100 | 100 | 100 | 100 | 100 | 100 | 100 | 98 | 96 | 100 | 94 | 94 | 100 | residual activity [21]: 95%; residual activity [22]: 100%; residual activity [23]: 100%; residual activity [24]: 100%; residual activity [25]: 77%; residual activity [26]: 82%; residual activity [27]: 91%; residual activity [28]: 100%; residual activity [29]: 100%; residual activity [30]: 100%; residual activity [31]: 97%; residual activity [32]: 100%; residual activity [33]: 86%; residual activity [34]: 100%; residual activity [35]: 100%; residual activity [36]: 100%; residual activity [37]: 98%; residual activity [38]: 100%; inhibition [39]: -5.7%; inhibition [40]: -5.35%
CC(=O)N1CCC(c2ccc(C(=O)NC3=NCCN3)cc2C(F)(F)F)CC1 [BI 0054] | 10 | 87 | 100 | 100 | 100 | 100 | 100 | 100 | 100 | 100 | 100 | 99 | 100 | 60 | 95 | 77 | 100 | 88 | 100 | 100 | residual activity [21]: 100%; residual activity [22]: 100%; residual activity [23]: 100%; residual activity [24]: 100%; residual activity [25]: 75%; residual activity [26]: 78%; residual activity [27]: 93%; residual activity [28]: 100%; residual activity [29]: 99%; residual activity [30]: 100%; residual activity [31]: 70%; residual activity [32]: 98%; residual activity [33]: 100%; residual activity [34]: 100%; residual activity [35]: 100%; residual activity [36]: 100%; residual activity [37]: 100%; residual activity [38]: 100%; inhibition [39]: -5.64%; inhibition [40]: -0.82%
